The source of these data is patent US7514454B2, “Piperidin-2,6-dione pamoate salts and their use for the treatment of stress-related affective disorders” (Prestwick Pharmaceuticals, Inc., priority 2002, dated 2009).

The conditions of series [1]: 1 mg b.i.d. (about 30 μg/kg/day), FDA permitted dose levels; cited from earlier work.
For series [2] the following is noted: about 4 mg/kg/day (200-400 mg/day for human patients); cited from earlier work.
The conditions of series [3]: rats, 200 mg/kg/day p.o., cited from earlier work.
Series [4] has as its system tryptophan hydroxylase. The series is described as follows: blockade of tryptophan hydroxylase activation. The format is biochemical. The settings on record: activation by metabolic inhibitors such as guanidine and sodium cyanide.

As to `COc1cccc(C2(CCCN(C)C)C(=O)NC(=O)CC2(C)C)c1.Cl` (centres unmarked) [hydrochloride salt of AGN 2979], in series [1], the anxiolytic properties result is reported as “only marginally effective”. The “effectiveness in the treatment of anxiety and depression” value in series [2] is “effective”. The “hepatocyte changes revealed by post-mortem examination” value in series [3] (1 year, not detected by routine transaminase determinations) was “hepatocyte changes”. Moreover, the weight loss in series [3] (over the 1-year period, immediate and continuing) is 40%.
On to `COc1cccc(C2(CCCN(C)C)C(=O)NC(=O)CC2(C)C)c1` (centres unmarked) [AGN 2979 pamoate, 3(3-methoxyphenyl)-3-(3-dimethylaminopropyl)-4,4-dimethyl-piperidine-2,6-dione pamoate], for which, in series [4], the “blockade of tryptophan hydroxylase activation” value is “blocked”.
